The results in this text go back to ChEMBL document CHEMBL1155912, “Synthesis of 6- or 4-functionalized indoles via a reductive cyclization approach and evaluation as aromatase inhibitors” (Bioorg Med Chem Lett, 2008).

The series addresses T1, CYP17 (steroid 17-alpha-hydroxylase/17,20 lyase) (Homo sapiens, UniProt P05093).
T1 sequence (P05093 whole entry): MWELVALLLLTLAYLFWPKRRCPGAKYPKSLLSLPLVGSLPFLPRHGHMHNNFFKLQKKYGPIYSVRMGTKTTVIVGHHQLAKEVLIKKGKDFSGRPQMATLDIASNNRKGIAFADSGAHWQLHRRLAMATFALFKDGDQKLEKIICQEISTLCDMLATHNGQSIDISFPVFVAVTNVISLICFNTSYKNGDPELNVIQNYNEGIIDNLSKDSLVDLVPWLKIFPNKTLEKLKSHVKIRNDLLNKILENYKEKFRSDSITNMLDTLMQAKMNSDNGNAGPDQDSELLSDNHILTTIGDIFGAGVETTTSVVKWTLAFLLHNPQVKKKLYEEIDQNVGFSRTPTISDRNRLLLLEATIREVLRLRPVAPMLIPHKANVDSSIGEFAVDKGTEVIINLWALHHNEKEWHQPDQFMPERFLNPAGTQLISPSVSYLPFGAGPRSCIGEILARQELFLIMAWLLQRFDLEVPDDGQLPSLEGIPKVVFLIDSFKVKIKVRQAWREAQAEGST
Briefly: in vitro.
Description: Inhibition of human CYP17 expressed in Escherichia coli pJL17/OR coexpressed with rat NADPH-P450 reductase at 2.5 uM
With `N#Cc1ccc(C(c2cccc3[nH]ccc23)n2ccnc2)cc1` (stereo not drawn), testing at 2.5 µM gave an inhibition of 18%.
Take `N#Cc1ccc(C(c2cccc3[nH]ccc23)n2cncn2)cc1` (stereo not drawn): the inhibition (usually the share of the control response that was lost under treatment) at 2.5 µM was below 10%.
`N#Cc1ccc(C(c2ccc3cc[nH]c3c2)n2ccnc2)cc1` (racemic) returned an inhibition at 2.5 µM of 26%.
